Data as given in patent publication US20120283303A1, “USE OF N-AMINOIMIDAZOLE CYTOPROTECTIVE COMPOUNDS FOR TREATING CELL DEATH AND/OR GSK-3 MEDIATED DISEASES” (K.U.LEUVEN RESEARCH AND DEVELOPMENT, priority 2006, published 2012).
Converted amounts (≈) assume the structure as drawn. Read-outs that look alike come from different tables or passages of the source.

Tests used:
M17-TAU P301L cells = test: TAU cytotoxicity (LDH leakage) in retinoic acid incubated M17-TAU P301L cells; type: cell-based, human; settings: reduction of LDH activity of retinoic acid incubated M17-TAU P301L cells, 7 days
Excerpt: An TAU expression plasmid was constructed by sub-cloning the cDNA of human TAU-P301L (encoding for TAU with proline 301 substituted by a leucine residue) into mammalian expression vector pcDNA3.1 resulting in plasmid pcDNA3.1-TAU P301L. Plasmids pcDNA3.1 and pcDNA3.1-TAU P301L were transfected to human neuroblastoma cells ([…]; ATCC No. CRL-2267) and independent clonal lines with the plasmids stably integrated into the genome were selected. […] Expression of the TAU P301L genes in the cell lines was confirmed by Western analysis.
In degenerated or dead cells, lactate dehydrogenase (LDH) is leaked out of the cells into the extracellular environment due to a loss of plasma-membrane integrity. This principle was used to determine cytotoxicity by quantifying the level of leaked LDH into the growth medium.
The detailed method for determining TAU cytotoxicity was as follows: From appropriate precultures of M17-3.1 and M17-TAU(P301L) cells were seeded at 2500 cells/cm2 in Optimem Reduced Serum without phenol red (Gibco, Cat. 31985-047) supplemented with 1% fetal calf serum, 1 mM sodium pyruvate, 1× non-essential amino acids, 500 μg/ml G418 0.5× antibiotic/antimycotic. After 3 hours of incubation at 37° C./5% CO2 1 volume of Optimem Reduced Serum (same as described above; except without fetal calf serum) supplemented with 2.5 μM retinoic acid (RA) was added. The cells were further incubated for 7 days. Subsequently, LDH activity was determined using Promega Cytotox 96 Non-Radioactive cytotoxicity assay, (Cat. G1780) according the supplier's instructions.
The M17-TAU P301L cell line made it possible to assess the ability of the compounds of this invention to counteract TAU cytotoxicity. […] Potency of the relevant compounds was determined by testing them at different concentrations ranging from non-effective (thus at a relatively low concentration) to an effective concentration for their ability to reduce LDH activity of retinoic acid incubated M17-TAU P301L cells.

[1] = system: Peripheral blood mononuclear cells (PBMCs); test: PBMC survival (viable cell count, trypan blue exclusion); type: cell-based, human; settings: NAIM alone, compared to control conditions
Description: Peripheral blood mononuclear cells (PBMCs) from healthy donors were isolated by density centrifugation (Lymphoprep; Nycomed Pharma, AS Diagnostics, Oslo, Norway). For the “non-stimulated” conditions (NS) the cells were cultivated at a density of 1,750,000 cells per ml in RPMI-1640 supplemented with 2 mM L-glutamine, 15% FCS and 0.1% NaHCO3 for 3 days. […] At day 0 of the experiment, the NS and activated cells (PHA-stimulated blasts) were washed with PBS and were pelleted by centrifugation. […] The number of viable cells was counted based on the trypan blue exclusion method. The evolution of the number of cells was followed over a period of approximately 2 weeks.

GSK-3β = target: T1, GSK-3β (Homo sapiens, UniProt P49841); test: Radiometric kinase activity assay; type: biochemical; settings: same experimental set-up as Table 1
T1 construct: purchased Upstate Biotechnology
Description: (§1) GSK-3 were assayed for their ability to phosphorylate the appropriate peptide/protein substrate in the presence of 5 μg/ml NR-818 and 10 μM ATP. Using the direct radiometric approach, kinase activities were determined and expressed as % activity compared to the untreated control (Upstate Biotechnology, Lake Placid, N.Y.). Activities are given as the mean of duplicate determinations relative to control incubations in which the inhibitor was substituted with DMSO. In the following table 1 providing results for NR818, the following abbreviations are used: • CDK, cyclin-dependent kinase; • CK, casein kinase; • eEF-2K, eukaryotic elongation factor-2 kinase; • JNK, c-Jun N-terminal kinase; • MAPK, mitogen-activated protein kinase; • PKC, protein kinase C; and • PI 3-kinase, phosphatidylinositol 3-kinase.
(§2) By using this experimental set-up, the inhibiting activity of NR953 on GSK-3 is also tested.

GSK-3α = target: T2, GSK-3α (Homo sapiens, UniProt P49840); test: Radiometric kinase activity assay; type: biochemical; settings: same experimental set-up as Table 1
T2 construct: purchased Upstate Biotechnology
Description: as §1, §2

[2] = Homo sapiens, 168 h, read-out: IC50

T1 sequence (P49841 whole entry): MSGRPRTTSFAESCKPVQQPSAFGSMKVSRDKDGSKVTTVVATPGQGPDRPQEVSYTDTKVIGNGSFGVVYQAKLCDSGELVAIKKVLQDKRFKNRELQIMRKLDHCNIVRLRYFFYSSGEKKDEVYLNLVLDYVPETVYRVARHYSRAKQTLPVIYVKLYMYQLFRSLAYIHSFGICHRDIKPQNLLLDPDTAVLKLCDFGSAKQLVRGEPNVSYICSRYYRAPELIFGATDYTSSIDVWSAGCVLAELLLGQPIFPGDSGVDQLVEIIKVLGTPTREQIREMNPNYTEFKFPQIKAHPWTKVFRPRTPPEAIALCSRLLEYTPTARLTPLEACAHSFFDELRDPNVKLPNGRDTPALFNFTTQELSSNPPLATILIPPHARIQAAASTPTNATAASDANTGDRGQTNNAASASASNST
T2 sequence (P49840 whole entry): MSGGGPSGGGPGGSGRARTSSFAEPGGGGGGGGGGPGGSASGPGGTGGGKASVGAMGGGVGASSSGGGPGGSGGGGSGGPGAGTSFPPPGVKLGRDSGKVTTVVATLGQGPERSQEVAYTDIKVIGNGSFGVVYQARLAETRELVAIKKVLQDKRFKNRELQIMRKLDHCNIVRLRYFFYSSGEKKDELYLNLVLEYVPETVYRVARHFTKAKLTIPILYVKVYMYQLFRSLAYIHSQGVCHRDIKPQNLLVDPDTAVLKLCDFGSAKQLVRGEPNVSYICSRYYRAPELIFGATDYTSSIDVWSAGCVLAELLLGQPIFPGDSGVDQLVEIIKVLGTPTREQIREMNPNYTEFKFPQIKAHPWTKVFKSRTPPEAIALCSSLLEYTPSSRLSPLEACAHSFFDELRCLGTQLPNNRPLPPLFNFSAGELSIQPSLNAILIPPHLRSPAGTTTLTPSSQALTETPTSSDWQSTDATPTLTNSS

SMILES | IC50 (M17-TAU P301L cells; [2]) [µg/mL] | also measured
Cc1ncn(Nc2cccc(Cl)c2)c1-c1cccc(Br)c1 [HER/LI412 = NR779GLUCOSE] | – | IC50 (M17-TAU P301L cells): 0.216 µg/mL (≈ 0.596 µM)
Cc1[nH]c(=S)n(Nc2ccccc2Cl)c1-c1ccccc1 [HER/NR723] | 0.024 (≈ 0.076 µM) | –
Cc1[nH]c(=S)n(Nc2cccc(Cl)c2)c1-c1ccccc1 [HER/NR724] | 0.34 (≈ 1.08 µM) | –
Cc1[nH]c(=S)n(Nc2ccc(Cl)cc2)c1-c1ccccc1 [HER/NR725] | 0.176 (≈ 0.557 µM) | –
Cc1ncn(Nc2cccc(Cl)c2)c1-c1ccccc1 [HER/NR746] | 0.081 (≈ 0.285 µM) | –
CSc1nc(C)c(-c2ccccc2)n1Nc1cccc(Cl)c1 [HER/NR747] | 0.256 (≈ 0.776 µM) | –
Cc1cccc(Nn2c(SCc3ccccc3)nc(C)c2-c2ccccc2)c1 [HER/NR748] | 0.325 (≈ 0.843 µM) | –
Cc1[nH]c(=S)n(Nc2cccc(Cl)c2)c1-c1cccc(Br)c1 [HER/NR759] | 0.174 (≈ 0.441 µM) | –
Cc1[nH]c(=S)n(Nc2cccc(Cl)c2)c1-c1ccc(Br)cc1 [HER/NR760] | 0.12 (≈ 0.304 µM) | –
Cc1[nH]c(=S)n(Nc2cccc(Cl)c2)c1-c1cccc(Cl)c1 [HER/NR761] | 0.11 (≈ 0.314 µM) | –
Cc1[nH]c(=S)n(Nc2cccc(Cl)c2)c1-c1ccc(Cl)cc1 [HER/NR762] | 0.061 (≈ 0.174 µM) | –
COc1ccc(-c2c(C)[nH]c(=S)n2Nc2cccc(Cl)c2)cc1 [HER/NR763] | 0.456 (≈ 1.32 µM) | –
Cc1[nH]c(=S)n(Nc2cccc(Cl)c2)c1-c1ccc(Cl)cc1Cl [HER/NR766] | 0.192 (≈ 0.499 µM) | –
Cc1ccc(Nn2c(-c3ccccc3)c(C)[nH]c2=S)cc1C [HER/NR767] | 0.146 (≈ 0.472 µM) | –
Cc1[nH]c(=S)n(Nc2cccc(Br)c2)c1-c1ccccc1 [HER/NR768] | 0.44 (≈ 1.22 µM) | –
Cc1[nH]c(=S)n(Nc2cc(Cl)ccc2Cl)c1-c1ccccc1 [HER/NR769] | 0.434 (≈ 1.24 µM) | –
Cc1[nH]c(=S)n(Nc2cccc(F)c2)c1-c1ccccc1 [HER/NR770] | 1.46 (≈ 4.88 µM) | –
Cc1ccc(Nn2c(-c3ccccc3)c(C)[nH]c2=S)cc1Cl [HER/NR771] | 0.293 (≈ 0.888 µM) | –
Cc1[nH]c(=S)n(Nc2ccccc2)c1-c1ccccc1 [HER/NR772] | 0.568 (≈ 2.02 µM) | –
Cc1[nH]c(=S)n(Nc2ccc(F)cc2)c1-c1ccccc1 [HER/NR773] | 0.426 (≈ 1.42 µM) | –
Cc1[nH]c(=S)n(Nc2cccc([N+](=O)[O-])c2)c1-c1ccccc1 [HER/NR774] | 2.13 (≈ 6.53 µM) | –
Cc1cccc(Nn2c(-c3ccccc3)c(C)[nH]c2=S)c1 [HER/NR775] | 0.321 (≈ 1.09 µM) | –
Cc1ncn(Nc2ccccc2)c1-c1ccccc1 [HER/NR776] | 0.455 (≈ 1.82 µM) | –
Cc1ncn(Nc2cccc(Cl)c2)c1-c1cccc(Cl)c1 [HER/NR777] | 0.107 (≈ 0.336 µM) | –
Cc1ncn(Nc2cccc(Cl)c2)c1-c1cccc(Br)c1 [HER/NR779] | – | IC50 (M17-TAU P301L cells): 0.022 µg/mL (≈ 0.0607 µM)
Cc1ncn(Nc2ccc(F)cc2)c1-c1ccccc1 [HER/NR786] | 0.191 (≈ 0.715 µM) | –
Cc1cccc(Nn2c(-c3ccccc3)c(C(C)C)[nH]c2=S)c1 [HER/NR787] | 0.4 (≈ 1.24 µM) | –
CCc1[nH]c(=S)n(Nc2cccc(C)c2)c1-c1ccccc1 [HER/NR788] | 0.341 (≈ 1.1 µM) | –

SMILES | IC50 (M17-TAU P301L cells; [2]) [µg/mL] | also measured
CCc1[nH]c(=S)n(Nc2cccc(Cl)c2)c1-c1ccccc1 [HER/NR789] | 0.184 (≈ 0.558 µM) | –
Cc1cccc(Nn2cnc(C)c2-c2ccccc2)c1 [HER/NR790] | 0.059 (≈ 0.224 µM) | –
CCc1ncn(Nc2cccc(C)c2)c1-c1ccccc1 [HER/NR791] | 0.046 (≈ 0.166 µM) | –
Cc1cc(C)cc(Nn2c(-c3ccccc3)c(C)[nH]c2=S)c1 [HER/NR798] | 0.496 (≈ 1.6 µM) | –
COc1cccc(Nn2c(-c3ccccc3)c(C)[nH]c2=S)c1 [HER/NR801] | 1.35 (≈ 4.34 µM) | –
COc1cccc(Nn2cnc(C)c2-c2ccccc2)c1 [HER/NR802] | 1.34 (≈ 4.79 µM) | –
Cc1[nH]c(=S)n(Nc2cccc(Cl)c2)c1-c1cccc(C#N)c1 [HER/NR803] | 0.086 (≈ 0.252 µM) | –
Cc1cccc(Nn2c(-c3cccc(C#N)c3)c(C)[nH]c2=S)c1 [HER/NR804] | 0.154 (≈ 0.481 µM) | –
Cc1ncn(Nc2cccc(Cl)c2)c1-c1cccc(C#N)c1 [HER/NR805] | 0.09 (≈ 0.291 µM) | –
Cc1cccc(Nn2cnc(C)c2-c2cccc(C#N)c2)c1 [HER/NR806] | 0.141 (≈ 0.489 µM) | –
Cc1cc(C)cc(Nn2cnc(C)c2-c2ccccc2)c1 [HER/NR808] | 0.023 (≈ 0.0829 µM) | –
Cc1cccc(Nn2cnc(C)c2-c2cccc(C(N)=O)c2)c1 [HER/NR809] | 0.33 (≈ 1.08 µM) | –
Cc1[nH]c(=S)n(Nc2cccc(Cl)c2)c1-c1cccc(C(=O)O)c1 [HER/NR810] | 1 (≈ 2.79 µM) | –
Cc1cccc(Nn2c(-c3cccc(C(=O)O)c3)c(C)[nH]c2=S)c1 [HER/NR811] | 1.9 (≈ 5.6 µM) | –
COC(=O)c1cccc(-c2c(C)[nH]c(=S)n2Nc2cccc(Cl)c2)c1 [HER/NR812] | 0.328 (≈ 0.877 µM) | –
Cc1[nH]c(=S)n(Nc2cccc(Cl)c2)c1-c1cccc(C(N)=O)c1 [HER/NR813] | 0.18 (≈ 0.502 µM) | –
COC(=O)c1cccc(-c2c(C)ncn2Nc2cccc(Cl)c2)c1 [HER/NR814] | 0.172 (≈ 0.503 µM) | –
Cc1ncn(Nc2cccc(Cl)c2)c1-c1cccc(C(=O)O)c1 [HER/NR815] | 0.805 (≈ 2.46 µM) | –
CCc1ccc(Nn2c(-c3ccccc3)c(C)[nH]c2=S)cc1 [HER/NR861] | 0.106 (≈ 0.343 µM) | –
CSc1ccc(Nn2c(-c3ccccc3)c(C)[nH]c2=S)cc1 [HER/NR862] | 0.027 (≈ 0.0824 µM) | –
Cc1c(-c2ccccc2)n(N(C)c2ccccc2)c(=S)n1C [HER/NR863] | 3.85 (≈ 12.4 µM) | –
Cc1ccc(Nn2cnc(C)c2-c2ccccc2)cc1Cl [HER/NR864] | 0.057 (≈ 0.191 µM) | –
Cc1ncn(Nc2cccc(Cl)c2)c1-c1ccc(Br)cc1 [HER/NR865] | 0.071 (≈ 0.196 µM) | –
Cc1[nH]c(=S)n(N(C)c2ccccc2)c1-c1ccccc1 [HER/NR866] | 0.195 (≈ 0.66 µM) | –
Cc1[nH]c(=S)n(Nc2cccc3ccccc23)c1-c1cccc(Br)c1 [HER/NR914] | 0.045 (≈ 0.11 µM) | –
Cc1[nH]c(=S)n(Nc2cccc3ccccc23)c1-c1cccc(Cl)c1 [HER/NR915] | 0.037 (≈ 0.101 µM) | –
Cc1nc(SC(O)C(O)C(O)C(O)C(O)CO)n(Nc2cccc3ccccc23)c1-c1ccccc1 (stereo not shown) [HER/NR953] | 0.052 (≈ 0.102 µM) | PBMC cell viability, NAIM as such [1]: did not affect the cell viability; IC50 on GSK-3β (GSK-3β): low micro-molar concentrations; IC50 on GSK-3α (GSK-3α): low micro-molar concentrations
